Experimental data from ChEMBL document CHEMBL1255186, “A novel 18F-labeled pyridyl benzofuran derivative for imaging of β-amyloid plaques in Alzheimer's brains” (Bioorg Med Chem Lett, 2010).
pKi: −log10 of the molar value. The source made the active and inactive calls. The calls are words filed in the database; no cut-off is given here.

Experiments:
Hippocampus = experiment: Reduction of amyloid beta40 level in Tg2576 mouse hippocampus at 11.1 MBq; type: functional, tissue-based; conditions: 11.1 M, tested as the 18F-labelled form
Mus musculus [1] = species on record: Mus musculus; experiment: Reduction of amyloid beta40 level in Tg2576 mouse dentate gyrus at 11.1 MBq; type: functional, tissue-based; conditions: 11.1 M, tested as the 18F-labelled form
Cortex = experiment: Reduction of amyloid beta40 level in Tg2576 mouse cortex at 11.1 MBq; type: functional, tissue-based; conditions: 11.1 M, tested as the 18F-labelled form
Mus musculus [2] = species on record: Mus musculus; experiment: Reduction of amyloid beta40 level in Tg2576 mouse entorhinal cortex at 11.1 MBq; type: functional, tissue-based; conditions: 11.1 M, tested as the 18F-labelled form
Brain [3] = experiment: Biodistribution in mouse brain at 444 kBq/50 uL after 10 mins; type: ADME, organism-based; conditions: in vivo
Bone [4] = experiment: Biodistribution in mouse bone at 444 kBq/50 uL after 10 mins; type: ADME, organism-based, Bone element; conditions: in vivo
Bone [5] = experiment: Biodistribution in mouse bone at 444 kBq/50 uL after 60 mins; type: ADME, organism-based, Bone element; conditions: in vivo, 1 h
Brain [6] = experiment: Biodistribution in mouse brain at 444 kBq/50 uL after 30 mins; type: ADME, organism-based; conditions: in vivo, 0.5 h
Brain [7] = experiment: Biodistribution in mouse brain at 444 kBq/50 uL after 60 mins; type: ADME, organism-based; conditions: in vivo, 1 h
Brain [8] = experiment: Biodistribution in mouse brain at 444 kBq/50 uL after 2 mins; type: ADME, organism-based; conditions: in vivo
Blood [9] = experiment: Biodistribution in mouse blood at 444 kBq/50 uL after 30 mins; type: ADME, organism-based; conditions: in vivo, 0.5 h
Blood [10] = experiment: Biodistribution in mouse blood at 444 kBq/50 uL after 2 mins; type: ADME, organism-based; conditions: in vivo
Blood [11] = experiment: Biodistribution in mouse blood at 444 kBq/50 uL after 10 mins; type: ADME, organism-based; conditions: in vivo
[12] = Displacement of [125I]IMPY from amyloid beta 1-42
Bone [13] = experiment: Biodistribution in mouse bone at 444 kBq/50 uL after 30 mins; type: ADME, organism-based, Bone element; conditions: in vivo, 0.5 h
Bone [14] = experiment: Biodistribution in mouse bone at 444 kBq/50 uL after 2 mins; type: ADME, organism-based, Bone element; conditions: in vivo
Blood [15] = experiment: Biodistribution in mouse blood at 444 kBq/50 uL after 60 mins; type: ADME, organism-based; conditions: in vivo, 1 h

Compound	Activity (Hippocampus)	Activity (Mus musculus [1])	Activity (Cortex)	Activity (Mus musculus [2])	Drug uptake (Brain [3]) [% ID/g]	Drug uptake (Bone [4]) [% ID/g]	Drug uptake (Bone [5]) [% ID/g]	Drug uptake (Brain [6]) [% ID/g]	Drug uptake (Brain [7]) [% ID/g]	Drug uptake (Brain [8]) [% ID/g]	Drug uptake (Blood [9]) [% ID/g]	Drug uptake (Blood [10]) [% ID/g]	Drug uptake (Blood [11]) [% ID/g]	pKi [12]	Drug uptake (Bone [13]) [% ID/g]	Drug uptake (Bone [14]) [% ID/g]	Drug uptake (Blood [15]) [% ID/g]
CN(C)c1ccc(-c2cc3cc(OCCOCCOCCF)ccc3o2)cn1	Active	Active	Active	Active													
CN(C)c1ccc(-c2cc3cc(OCCOCCOCC[18F])ccc3o2)cn1					3.75	1.33	1.42	2.78	2.44	5.16	1.76	2.83	2.13	9.05	1.11	1.61	1.98
